The subject of one test is U937 cells. The test is described as follows: Cellular assay in U937 cells: activity of RIPK1 inhibitors on TNFα/zVAD.fmk-induced cell death (necroptosis), CellTiter 96 AQueous (MTS) readout. The conditions noted are these: Homo sapiens, U-937. It counts as cell-based. A digest of the protocol:
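Necroptosis was measured by viable-cell MTS reduction (4 h, absorbance 490 nm) after overnight (18–24 h) 37° C culture. Cell suspensions of U937 cells carried TNFα (100 ng/ml) plus zVAD.fmk (50 μM) before compound was added. A 10-point curve (10 μM–0.26 nM or 1 μM–0.07 nM) was run in duplicate, normalised to the control lacking TNFα/zVAD.fmk.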

The target of test [1] is T1, hRIPK1 (aa 1-375) fusion protein (Homo sapiens, UniProt Q13546).
T1 construct: hRIPK1 (aa 1-375) fusion protein
T1 sequence (Q13546 1-375): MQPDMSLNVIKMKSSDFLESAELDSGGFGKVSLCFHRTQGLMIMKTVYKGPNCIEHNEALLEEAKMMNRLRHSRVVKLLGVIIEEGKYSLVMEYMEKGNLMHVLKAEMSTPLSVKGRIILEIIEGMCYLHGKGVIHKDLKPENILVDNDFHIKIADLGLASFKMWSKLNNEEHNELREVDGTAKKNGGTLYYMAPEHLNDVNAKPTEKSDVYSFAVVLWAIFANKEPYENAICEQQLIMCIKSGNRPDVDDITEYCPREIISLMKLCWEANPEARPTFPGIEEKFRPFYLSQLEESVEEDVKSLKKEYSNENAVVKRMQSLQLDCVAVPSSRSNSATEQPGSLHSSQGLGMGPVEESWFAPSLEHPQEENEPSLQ
In words: ADP-Glo kinase assay: catalytic activity of RIPK1 (autophosphorylation, conversion of ATP to ADP). It counts as biochemical. A digest of the protocol: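 hRIPK1 (aa 1-375) fusion protein (3.6 μg/ml final) was preincubated 30 min at rt with compound (33300-1.69 nM, 1% DMSO), then 50 μM ATP was added for 240 min at rt. ADP from autophosphorylation was measured by ADP-Glo luminescence and curves fitted by nonlinear regression.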

pIC50: −log10 of the molar value.

On to `Cc1ccc([C@@H]2CCON2C(=O)[C@H]2CC[C@H](Cc3ccc4nc(N)nn4c3)CC2)cn1` [compound 391, [4-[(2-amino-[1,2,4]triazolo[1,5-a]pyridin-6-yl)methyl]cyclohexyl]-[(3S)-3-(6-methylpyridin-3-yl)-1,2-oxazolidin-2-yl]methanone], for which the pIC50 in the test on U937 cells was 7.19; in test [1] it was 7.20.
For `NC(=O)c1cc(C[C@H]2CC[C@H](C(=O)N3OCC[C@H]3c3cnccn3)CC2)ccc1F` [compound 193, trans-2-fluoro-5-[[4-[(3S)-3-pyrazin-2-ylisoxazolidine-2-carbonyl]cyclohexyl]methyl]benzamide] the same measures were 7.85 and 8.00.
In the case of `Cc1cc(C[C@H]2CC[C@H](C(=O)N3OCC[C@H]3c3ccc(F)cc3)CC2)cn2c(C)nnc12` [compound 319, trans-[4-[(3,8-dimethyl-[1,2,4]triazolo[4,3-a]pyridin-6-yl)methyl]cyclohexyl]-[(3S)-3-(4-fluorophenyl)isoxazolidin-2-yl]methanone], the negative logarithm of the IC50 (pIC50) in the test on U937 cells is 7.48; in test [1] it was 7.85.
For `NC(=O)c1cc(C[C@H]2CC[C@H](C(=O)N3OCC[C@H]3c3ccc(F)cc3)CC2)ccc1F` [compound 191, trans-2-fluoro-5-[[4-[(3S)-3-(4-fluorophenyl)isoxazolidine-2-carbonyl]cyclohexyl]methyl]benzamide] the same measures were 8.05 and 8.00.
With `N#Cc1cc(F)cc([C@@H]2CCON2C(=O)[C@H]2CC[C@H](Cn3cnc4c(F)cc(C#N)cc43)CC2)c1` [compound 36, trans-1-((4-((S)-3-(3-cyano-5-fluorophenyl)isoxazolidine-2-carbonyl)cyclohexyl)methyl)-4-fluoro-1H-benzo[d]imidazole-6-carbonitrile], the negative-log IC50 (pIC50) with U937 cells is 7.70; in test [1], 7.64.
For `Cc1ccc(C[C@H]2CC[C@H](C(=O)N3OCC[C@H]3c3cc(F)cc(C#N)c3)CC2)cc1C#N` [compound 109, trans-5-((4-((S)-3-(3-cyano-5-fluorophenyl)isoxazolidine-2-carbonyl)cyclohexyl)methyl)-2-methylbenzonitrile] the same measures were 9.00 and 7.72.
For `Cc1ncn(C[C@H]2CC[C@H](C(=O)N3OCC[C@H]3c3cc(F)cc(F)c3)CC2)c1C` [compound 83, trans-((S)-3-(3,5-difluorophenyl)isoxazolidin-2-yl)(4-((4,5-dimethyl-1H-imidazol-1-yl)methyl)cyclohexyl)methanone] the same measures were 7.66 and 7.49.
In the same order, the values of `Cc1cncc([C@@H]2CCON2C(=O)[C@H]2CC[C@H](Cc3cc(C)c4nc(C)nn4c3)CC2)n1` [compound 411, trans-[4-[(2,8-dimethyl-[1,2,4]triazolo[1,5-a]pyridin-6-yl)methyl]cyclohexyl]-[(3S)-3-(6-methylpyrazin-2-yl)isoxazolidin-2-yl]methanone] are 7.44 and 7.32.
On to `Cc1cc(-c2cncc(C[C@H]3CC[C@H](C(=O)N4OCC[C@H]4c4cnccn4)CC3)c2)n(C)n1` [compound 305, trans-[4-[[5-(2,5-dimethylpyrazol-3-yl)-3-pyridyl]methyl]cyclohexyl]-[(3S)-3-pyrazin-2-ylisoxazolidin-2-yl]methanone], for which the negative-log IC50 (pIC50) with U937 cells was 7.37; in test [1], 7.54.
For `O=C([C@H]1CC[C@H](Cn2ccc3ncc(Cl)cc32)CC1)N1OCC[C@H]1c1cc(F)cc(F)c1` [compound 21, trans-(4-((6-chloro-1H-pyrrolo[3,2-b]pyridin-1-yl)methyl)cyclohexyl)((S)-3-(3,5-difluorophenyl)isoxazolidin-2-yl)methanone] the same measures were 8.30 and 7.60.
In the same order, the values of `COc1cc(C[C@H]2CC[C@H](C(=O)N3OCC[C@H]3c3cncc(C)c3)CC2)cn2nc(C)nc12` [compound 383, trans-[4-[(8-methoxy-2-methyl-[1,2,4]triazolo[1,5-a]pyridin-6-yl)methyl]cyclohexyl]-[(3S)-3-(5-methylpyridin-3-yl)-1,2-oxazolidin-2-yl]methanone] are 7.33 and 7.09.
For `N#Cc1cncc([C@@H]2CCON2C(=O)[C@H]2CC[C@H](Cn3cnc4cc(F)ccc43)CC2)c1` [compound 107, trans-5-((S)-2-(4-((5-fluoro-1H-benzo[d]imidazol-1-yl)methyl)cyclohexane-1-carbonyl)isoxazolidin-3-yl)nicotinonitrile] the same measures were 6.97 and 7.41.
With `N#Cc1cncc([C@@H]2CCON2C(=O)[C@H]2CC[C@H](Cn3cnc4cc(C#N)c(F)cc43)CC2)c1` [compound 65, trans-1-((4-((S)-3-(5-cyanopyridin-3-yl)isoxazolidine-2-carbonyl)cyclohexyl)methyl)-6-fluoro-1H-benzo[d]imidazole-5-carbonitrile], the pIC50 was 6.79 with U937 cells and 7.29 in test [1].
Turning to `N#Cc1cc(F)c2ccn(C[C@H]3CC[C@H](C(=O)N4OCC[C@H]4c4cc(F)cc(F)c4)CC3)c2c1` [compound 45, trans-1-((4-((S)-3-(3,5-difluorophenyl)isoxazolidine-2-carbonyl)cyclohexyl)methyl)-4-fluoro-1H-indole-6-carbonitrile], the pIC50 in the test with U937 cells is 8.22; in test [1], 7.74.
Regarding `Cc1ccc([C@@H]2CCON2C(=O)[C@H]2CC[C@H](Cc3ccc4c(c3)C(=O)NC4)CC2)cn1` [compound 157, trans-6-[[4-[(3S)-3-(6-methyl-3-pyridyl)isoxazolidine-2-carbonyl]cyclohexyl]methyl]isoindolin-1-one], the pIC50 in the test with U937 cells is 6.40; in test [1] it was 7.48.
In the same order, the values of `N#Cc1cncc(C[C@H]2CC[C@H](C(=O)N3OCC[C@H]3c3cnccn3)CC2)c1` [compound 140, trans-5-[[4-[(3S)-3-pyrazin-2-ylisoxazolidine-2-carbonyl]cyclohexyl]methyl]pyridine-3-carbonitrile] are 6.76 and 7.40.
In the case of `O=C([C@H]1CC[C@H](Cc2cc(F)cc(CO)c2)CC1)N1OCC[C@H]1c1cnccn1` [compound 259, trans-[4-[[3-fluoro-5-(hydroxymethyl)phenyl]methyl]cyclohexyl]-[(3S)-3-pyrazin-2-ylisoxazolidin-2-yl]methanone], the figures for the pIC50 (with U937 cells; in test [1]) were 8.70 and 8.10, respectively.
With `COc1ccc2c(ccn2C[C@H]2CC[C@H](C(=O)N3OCC[C@H]3c3cc(F)cc(C#N)c3)CC2)n1` [compound 120, trans-3-fluoro-5-[(3S)-2-[4-[(5-methoxypyrrolo[3,2-b]pyridin-1-yl)methyl]cyclohexanecarbonyl]isoxazolidin-3-yl]benzonitrile], the pIC50 in the test on U937 cells was 8.22; in test [1] it was 7.39.
In the case of `Cc1nnc2ccc(C[C@H]3CC[C@H](C(=O)N4OCC[C@H]4c4cc(F)cc(C#N)c4)CC3)cn12` [compound 224, trans-3-fluoro-5-[(3S)-2-[4-[(3-methyl-[1,2,4]triazolo[4,3-a]pyridin-6-yl)methyl]cyclohexanecarbonyl]isoxazolidin-3-yl]benzonitrile], the pIC50 with U937 cells was 7.77; in test [1], 7.46.
On to `Cc1nccn1-c1cc(F)cc(C[C@H]2CC[C@H](C(=O)N3OCC[C@H]3c3ccc(F)cc3)CC2)c1` [compound 207, trans-[4-[[3-fluoro-5-(2-methylimidazol-1-yl)phenyl]methyl]cyclohexyl]-[(3S)-3-(4-fluorophenyl)isoxazolidin-2-yl]methanone], for which the figures for the negative-log IC50 (pIC50) (in the test with U937 cells; in test [1]) were 7.28 and 7.64, respectively.
Regarding `N#Cc1ccc2cn(C[C@H]3CC[C@H](C(=O)N4OCC[C@H]4c4cc(F)cc(F)c4)CC3)nc2c1` [compound 31, trans-2-((4-((S)-3-(3,5-difluorophenyl)isoxazolidine-2-carbonyl)cyclohexyl)methyl)-2H-indazole-6-carbonitrile], the figures for the pIC50 (with U937 cells; in test [1]) were 7.72 and 7.62, respectively.
For `Cc1ccc([C@@H]2CCON2C(=O)[C@H]2CC[C@H](Cc3ccc(C)nn3)CC2)cn1` [compound 387, trans-[4-[(6-methylpyridazin-3-yl)methyl]cyclohexyl]-[(3S)-3-(6-methylpyridin-3-yl)-1,2-oxazolidin-2-yl]methanone] the same measures were 5.73 and 6.00.
With `N#Cc1cc(F)c2cnn(C[C@H]3CC[C@H](C(=O)N4OCC[C@H]4c4cc(F)cc(F)c4)CC3)c2c1` [compound 33, trans-1-((4-((S)-3-(3,5-difluorophenyl)isoxazolidine-2-carbonyl)cyclohexyl)methyl)-4-fluoro-1H-indazole-6-carbonitrile], the results for the pIC50 (in the test with U937 cells; in test [1]) were 8.70 and 7.72, respectively.
In the same order, the values of `Cc1cc2nnc(C)n2cc1C[C@H]1CC[C@H](C(=O)N2OCC[C@H]2c2ccc(F)c(F)c2)CC1` [compound 318, [(3S)-3-(3,4-difluorophenyl)isoxazolidin-2-yl]-[4-[(3,7-dimethyl-[1,2,4]triazolo[4,3-a]pyridin-6-yl)methyl]cyclohexyl]methanone] are 7.57 and 7.66.

In general, pIC50 refers to −log10 of the IC50, conventionally taken in molar units.

Values taken from US20260158009A1 (GENZYME CORPORATION, priority 2023, published 2026).
